Laboratory results from PubChem BioAssay AID328 (DTP/NCI, 2004).
Several values for one entry are separate records, joined by “and”; a condition that tells them apart may be missing. Equal values may be shown once. Inconclusive results and toxic doses are left out.

System: BDF1 mice, P388 leukemia ip, median survival T/C
Assay: NCI In Vivo Anticancer Drug Screen. Data for tumor model P388 Leukemia (intraperitoneal) in B6D2F1 (BDF1) mice
Conditions: endpoint: median survival time, higher = longer survival
Method in brief: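 Steps: implant the tumour, treat one group with compound and another with vehicle, record survival, then divide treated by control.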

[1] = dose: 25.0 mg/kg/injection, schedule: Q01DX009 (ip), vehicle: saline
[2] = dose: 50.0 mg/kg/injection, schedule: Q01DX009 (ip), vehicle: saline
[3] = dose: 200.0 mg/kg/injection, schedule: Q01DX009 (ip), vehicle: saline
[4] = dose: 50.0 mg/kg/injection, schedule: Q01DX009 (ip), vehicle: saline with Tween-80
[5] = dose: 100.0 mg/kg/injection, schedule: Q01DX009 (ip), vehicle: saline with Tween-80
[6] = dose: 200.0 mg/kg/injection, schedule: Q01DX009 (ip), vehicle: saline with Tween-80
[7] = dose: 100.0 mg/kg/injection, schedule: Q01DX009 (ip), vehicle: saline
[8] = dose: 100.0 mg/kg/injection, schedule: Q04DX003 (ip), vehicle: saline
[9] = dose: 200.0 mg/kg/injection, schedule: Q04DX003 (ip), vehicle: saline
[10] = dose: 400.0 mg/kg/injection, schedule: Q04DX003 (ip), vehicle: saline
[11] = dose: 100.0 mg/kg/injection, schedule: Q01DX009 (ip), vehicle: Klucel (hydroxypropylcellulose) (HPC)
[12] = dose: 200.0 mg/kg/injection, schedule: Q01DX009 (ip), vehicle: Klucel (hydroxypropylcellulose) (HPC)
[13] = dose: 400.0 mg/kg/injection, schedule: Q01DX009 (ip), vehicle: Klucel (hydroxypropylcellulose) (HPC)
[14] = dose: 25.0 mg/kg/injection, schedule: Q01DX009 (ip), vehicle: Klucel (hydroxypropylcellulose) (HPC)
[15] = dose: 50.0 mg/kg/injection, schedule: Q01DX009 (ip), vehicle: Klucel (hydroxypropylcellulose) (HPC)
[16] = dose: 12.5 mg/kg/injection, schedule: Q01DX009 (ip), vehicle: saline with Tween-80
[17] = dose: 100.0 mg/kg/injection, schedule: Q04DX003 (ip), vehicle: saline with Tween-80
[18] = dose: 200.0 mg/kg/injection, schedule: Q04DX003 (ip), vehicle: saline with Tween-80
[19] = dose: 400.0 mg/kg/injection, schedule: Q01DX009 (ip), vehicle: saline with Tween-80
[20] = dose: 400.0 mg/kg/injection, schedule: Q04DX003 (ip), vehicle: saline with Tween-80
[21] = dose: 100.0 mg/kg/injection, schedule: Q04DX003 (ip), vehicle: Klucel (hydroxypropylcellulose) (HPC)
[22] = dose: 200.0 mg/kg/injection, schedule: Q04DX003 (ip), vehicle: Klucel (hydroxypropylcellulose) (HPC)
[23] = dose: 400.0 mg/kg/injection, schedule: Q04DX003 (ip), vehicle: Klucel (hydroxypropylcellulose) (HPC)
[24] = dose: 25.0 mg/kg/injection, schedule: Q01DX009 (ip), vehicle: saline with Tween-80

SMILES: CC1CN1P(=O)(OCCC#N)N1CC1C (stereo unspecified)
- T/C [1]: 115 % of control
- T/C [2]: 97 % of control
- T/C (dose: 100.0 mg/kg/injection, schedule: Q04DX003 (ip), vehicle: other): 163 % of control
- T/C (dose: 150.0 mg/kg/injection, schedule: Q01DX009 (ip), vehicle: other): 170 % of control
- T/C [3]: 160 % of control and 203 % of control
- T/C (dose: 200.0 mg/kg/injection, schedule: Q04DX003 (ip), vehicle: other): 227 % of control

SMILES: C1CC[N-]CC1.C1CC[N-]CC1.C1CC[N-]CC1.[Cl][Rh]([Cl])[Cl]
- T/C (dose: 12.5 mg/kg/injection, schedule: Q01DX009 (ip), vehicle: saline): 156 % of control
- T/C [1]: 157 % of control
- T/C [2]: 161 % of control and 175 % of control

SMILES: N/C(=N\N=C\c1ccc(-c2ccccc2)cc1)N[N+](=O)[O-]
- T/C (dose: 25.0 mg/kg/injection, schedule: Q01DX010 (ip), vehicle: carboxymethylcellulose (CMC)): 100 % of control
- T/C (dose: 50.0 mg/kg/injection, schedule: Q01DX010 (ip), vehicle: carboxymethylcellulose (CMC)): 100 % of control
- T/C (dose: 100.0 mg/kg/injection, schedule: Q01DX010 (ip), vehicle: carboxymethylcellulose (CMC)): 100 % of control
- T/C (dose: 200.0 mg/kg/injection, schedule: Q01DX010 (ip), vehicle: carboxymethylcellulose (CMC)): 100 % of control

SMILES: CC(=O)OC1CCCc2c1nc1ccccc1[n+]2[O-] (stereo unspecified)
- T/C [4]: 88 % of control
- T/C [5]: 100 % of control
- T/C [6]: 96 % of control

SMILES: CN1CCN(c2cc3c(cc2[N+](=O)[O-])no[n+]3[O-])CC1
- T/C (dose: 15.0 mg/kg/injection, schedule: Q01DX009 (ip), vehicle: saline with Tween-80): 123 % of control
- T/C (dose: 30.0 mg/kg/injection, schedule: Q01DX009 (ip), vehicle: saline with Tween-80): 120 % of control
- T/C (dose: 60.0 mg/kg/injection, schedule: Q01DX009 (ip), vehicle: saline with Tween-80): 103 % of control

SMILES: CCCCCCCCNC(=O)C1OC(n2cnc3c(N)ncnc32)C(O)C1O (stereo unspecified)
- T/C [1]: 95 % of control
- T/C [2]: 90 % of control
- T/C [7]: 95 % of control and 105 % of control
- T/C [8]: 95 % of control
- T/C [3]: 90 % of control and 109 % of control
- T/C [9]: 105 % of control
- T/C [10]: 90 % of control

SMILES: O=c1ccccn1CC1(c2ccccc2)OCCO1
- T/C [11]: 95 % of control
- T/C [12]: 91 % of control
- T/C [13]: 95 % of control

SMILES: CN(C)c1ccc(C(=O)c2ccccc2)cc1
- T/C [14]: 104 % of control
- T/C [15]: 90 % of control
- T/C [11]: 95 % of control

SMILES: O=[N+]([O-])c1ccc(OCCNS(=O)(=O)c2cccc(S(=O)(=O)F)c2)c(Cl)c1
- T/C [16]: 110 % of control
- T/C [4]: 110 % of control
- T/C [5]: 94 % of control
- T/C [17]: 99 % of control
- T/C [6]: 105 % of control
- T/C [18]: 99 % of control
- T/C [19]: 88 % of control
- T/C [20]: 108 % of control

SMILES: CC(C)=CCC1=C(OC2OC(CO)C(O)C(O)C2O)C(=O)c2ccccc2C1=O (stereo unspecified)
- T/C (dose: 1.56 mg/kg/injection, schedule: Q01DX009 (ip), vehicle: saline with Tween-80): 123 % of control
- T/C (dose: 3.13 mg/kg/injection, schedule: Q01DX009 (ip), vehicle: saline with Tween-80): 160 % of control

SMILES: O=C(O)Cc1c[nH]c2cccc(Cl)c12
- T/C [4]: 93 % of control
- T/C [5]: 98 % of control
- T/C [6]: 100 % of control

SMILES: CC1(C)SC(C)(C)N(C=O)C1C(=O)O (stereo unspecified)
- T/C [11]: 90 % of control
- T/C [21]: 91 % of control
- T/C [12]: 109 % of control
- T/C [22]: 95 % of control
- T/C [13]: 90 % of control
- T/C [23]: 91 % of control

SMILES: CCCC#CC#N
- T/C (dose: 25.0 mg/kg/injection, schedule: Q01DX009 (ip), vehicle: olive oil, sesame oil, peanut oil): 104 % of control
- T/C (dose: 50.0 mg/kg/injection, schedule: Q01DX009 (ip), vehicle: olive oil, sesame oil, peanut oil): 91 % of control

SMILES: COc1ccccc1C(c1ccccc1OC)N(C)C(C)(C)CO
- T/C (dose: 6.25 mg/kg/injection, schedule: Q01DX009 (ip), vehicle: saline with Tween-80): 100 % of control
- T/C [16]: 91 % of control
- T/C [24]: 91 % of control

SMILES: Cc1cc(C)cc(C(C)C)c1
- T/C [4]: 101 % of control
- T/C [5]: 116 % of control
- T/C [6]: 122 % of control

SMILES: O=C1OCCC1C(=O)C(O)(C(F)(F)F)C(F)(F)F (stereo unspecified)
- T/C (dose: 100.0 mg/kg/injection, schedule: Q01DX001 (ip), vehicle: other): 90 % of control
- T/C (dose: 200.0 mg/kg/injection, schedule: Q01DX001 (ip), vehicle: other): 90 % of control
- T/C (dose: 400.0 mg/kg/injection, schedule: Q01DX001 (ip), vehicle: other): 100 % of control

SMILES: Cn1cnc([N+](=O)[O-])c1Cl
- T/C [24]: 101 % of control
- T/C (dose: 50.0 mg/kg/injection, schedule: Q01DX005 (ip), vehicle: saline): 95 % of control
- T/C [4]: 92 % of control
- T/C (dose: 100.0 mg/kg/injection, schedule: Q01DX005 (ip), vehicle: saline): 104 % of control
- T/C [5]: 106 % of control
- T/C [8]: 100 % of control
- T/C [6]: 101 % of control
- T/C [9]: 105 % of control

SMILES: CC(C=C1CCCCC1)C(=O)O (stereo unspecified)
- T/C [7]: 113 % of control
- T/C [3]: 109 % of control
- T/C (dose: 400.0 mg/kg/injection, schedule: Q01DX009 (ip), vehicle: saline): 118 % of control

SMILES: CC#CCOCC1CN(c2ccccc2)C(=O)O1 (stereo unspecified)
- T/C [8]: 92 % of control
- T/C [6]: 100 % of control
- T/C [9]: 92 % of control
- T/C [19]: 100 % of control
- T/C [10]: 100 % of control

SMILES: Cc1ccc(-c2nn3c(-c4ccccc4)nnc3o2)cc1
- T/C [17]: 110 % of control
- T/C [18]: 115 % of control
- T/C [20]: 105 % of control

SMILES: Nc1cc(Cl)ncn1
- T/C (dose: 60.0 mg/kg/injection, schedule: Q01DX009 (ip), vehicle: saline): 100 % of control
- T/C (dose: 90.0 mg/kg/injection, schedule: Q01DX009 (ip), vehicle: saline): 97 % of control
- T/C (dose: 175.0 mg/kg/injection, schedule: Q01DX009 (ip), vehicle: saline): 97 % of control
- T/C [12]: 95 % of control

SMILES: O=C1c2ccccc2C(=O)N1N(c1ccccc1)c1ccccc1
- T/C [11]: 104 % of control
- T/C [21]: 110 % of control
- T/C [22]: 120 % of control
- T/C [13]: 100 % of control
- T/C [23]: 105 % of control

SMILES: C1=CC23C4CCC2C2C4C4C(=C1)C3C2N1CCCCC41 (stereo unspecified)
- T/C (dose: 12.5 mg/kg/injection, schedule: Q01DX009 (ip), vehicle: Klucel (hydroxypropylcellulose) (HPC)): 104 % of control
- T/C [14]: 100 % of control
- T/C (dose: 37.5 mg/kg/injection, schedule: Q04DX003 (ip), vehicle: Klucel (hydroxypropylcellulose) (HPC)): 91 % of control
- T/C [15]: 100 % of control
- T/C (dose: 75.0 mg/kg/injection, schedule: Q04DX003 (ip), vehicle: Klucel (hydroxypropylcellulose) (HPC)): 100 % of control

SMILES: C=C(C(=O)OC1C/C(C)=C/C(O)C/C(C)=C/C2OC(=O)C(=C)C21)C(C)O (stereo unspecified)
- T/C (dose: 100.0 mg/kg/injection, schedule: Q04DX002 (ip), vehicle: Klucel (hydroxypropylcellulose) (HPC)): 120 % of control
